# In patent US10246456B2, “IRAK4 inhibiting agents” (BIOGEN MA INC., priority 2014, dated 2019):
# Molecular target: IRAK4 (Homo sapiens (Human), UniProt Q9NWZ3)
# Assay: IRAK-4 AlphaScreen biochemical kinase assay
# Conditions: 1 nM IRAK4, 1 mM ATP, 3.5 h at RT
# Method in brief: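 AlphaScreen read-out: streptavidin beads bind the biotinylated peptide and protein A beads bind the anti-phosphothreonine antibody, so energy transfer reports phosphorylation of the peptide. The kinase is human IRAK-4.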
# Sequence of IRAK4 (Q9NWZ3 whole entry, species assumed): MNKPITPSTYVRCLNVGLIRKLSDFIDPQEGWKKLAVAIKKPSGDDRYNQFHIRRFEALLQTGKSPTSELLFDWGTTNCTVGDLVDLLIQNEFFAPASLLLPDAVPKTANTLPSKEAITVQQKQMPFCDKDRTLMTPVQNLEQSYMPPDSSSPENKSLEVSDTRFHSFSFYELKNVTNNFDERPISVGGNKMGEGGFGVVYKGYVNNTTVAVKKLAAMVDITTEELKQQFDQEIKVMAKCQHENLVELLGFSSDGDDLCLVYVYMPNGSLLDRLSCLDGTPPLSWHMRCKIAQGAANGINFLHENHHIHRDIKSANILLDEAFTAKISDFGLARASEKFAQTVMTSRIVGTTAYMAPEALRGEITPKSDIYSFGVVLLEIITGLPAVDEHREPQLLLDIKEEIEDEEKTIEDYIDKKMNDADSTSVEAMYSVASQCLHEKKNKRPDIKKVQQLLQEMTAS
row,Compound,IC50
1,"C[C@H](N)c1cccc(-c2cc(-c3ccnn3C(F)F)c3cnn(-c4cccc(CO)n4)c3c2)n1 [Example 387, (S)-(6-(6-(6-(1-aminoethyl)pyridin-2-yl)-4-(1-(difluoromethyl)-1H-pyrazol-5-yl)-1H-indazol-1-yl)pyridin-2-yl)methanol]",< 0.1 µM
2,"C[C@H](N)c1cccc(-c2cc(-c3cnccn3)c3cnn(-c4cccc(CO)n4)c3c2)n1 [Example 388, (S)-(6-(6-(6-(1-aminoethyl)pyridin-2-yl)-4-(pyrazin-2-yl)-1H-indazol-1-yl)pyridin-2-yl)methanol]",< 0.1 µM
3,"CC[C@@H](N)c1cccc(-c2cc(-c3cc(C)n(C)n3)c3cnn(-c4cccc(CO)n4)c3c2)n1 [Example 390, (R)-(6-(6-(6-(1-aminopropyl)pyridin-2-yl)-4-(1,5-dimethyl-1H-pyrazol-3-yl)-1H-indazol-1-yl)pyridin-2-yl)methanol]",< 0.1 µM
4,"Cc1cc(-c2cc(-c3cccc([C@@H](N)CF)n3)cc3c2cnn3-c2cccc(CO)n2)nn1C [Example 391, (R)-(6-(6-(6-(1-amino-2-fluoroethyl)pyridin-2-yl)-4-(1,5-dimethyl-1H-pyrazol-3-yl)-1H-indazol-1-yl)pyridin-2-yl)methanol]",< 0.1 µM
5,"Cn1ccc(-c2cc(-c3cccc([C@@H](N)CCCO)n3)cc3c2cnn3-c2cccc(CO)n2)n1 [Example 395, (S)-4-amino-4-(6-(1-(6-(hydroxymethyl)pyridin-2-yl)-4-(1-methyl-1H-pyrazol-3-yl)-1H-indazol-6-yl)pyridin-2-yl)butan-1-ol]",< 0.1 µM
6,"N[C@@H](CCCO)c1cccc(-c2ccc3cnn(-c4cccc(CO)n4)c3c2)n1 [Example 396, (S)-4-amino-4-(6-(1-(6-(hydroxymethyl)pyridin-2-yl)-1H-indazol-6-yl)pyridin-2-yl)butan-1-ol]",< 0.1 µM
7,"CCC[C@H](N)c1cccc(-c2ccc3cnn(-c4ccnc(CO)c4)c3c2)n1 [Example 400, (S)-(4-(6-(6-(1-aminobutyl)pyridin-2-yl)-1H-indazol-1-yl)pyridin-2-yl)methanol]",0.1 to 1 µM
8,"CCC[C@H](N)c1cccc(-c2ccc3cnn(-c4ccnc(CO)n4)c3c2)n1 [Example 401, (S)-(4-(6-(6-(1-aminobutyl)pyridin-2-yl)-1H-indazol-1-yl)pyrimidin-2-yl)methanol]",< 0.1 µM
9,"CCC[C@H](N)c1cccc(-c2ccc3cnn(-c4nccc(CO)n4)c3c2)n1 [Example 403, (S)-(2-(6-(6-(1-aminobutyl)pyridin-2-yl)-1H-indazol-1-yl)pyrimidin-4-yl)methanol]",< 0.1 µM

# Next, values leading:
row,IC50,Compound
1,< 0.1 µM,"CCC[C@H](N)c1cccc(-c2cc(-c3cc(C)n(C)n3)c3cnn(-c4cccc(CO)n4)c3c2)n1 [Example 389, (S)-(6-(6-(6-(1-aminobutyl)pyridin-2-yl)-4-(1,5-dimethyl-1H-pyrazol-3-yl)-1H-indazol-1-yl)pyridin-2-yl)methanol]"
2,< 0.1 µM,"Cc1cc(-c2cc(-c3cccc([C@@H](N)CCCO)n3)cc3c2cnn3-c2cccc(CO)n2)nn1C [Example 392, (S)-4-amino-4-(6-(4-(1,5-dimethyl-1H-pyrazol-3-yl)-1-(6-(hydroxymethyl)pyridin-2-yl)-1H-indazol-6-yl)pyridin-2-yl)butan-1-ol]"
3,< 0.1 µM,"C[C@H](N)c1cccc(-c2cc(-c3ccncn3)c3cnn(-c4cccc(CO)n4)c3c2)n1 [Example 393, (S)-(6-(6-(6-(1-aminoethyl)pyridin-2-yl)-4-(pyrimidin-4-yl)-1H-indazol-1-yl)pyridin-2-yl)methanol]"
4,< 0.1 µM,"C[C@H](N)c1cccc(-c2cc(-c3cccnn3)c3cnn(-c4cccc(CO)n4)c3c2)n1 [Example 394, (S)-(6-(6-(6-(1-aminoethyl)pyridin-2-yl)-4-(pyridazin-3-yl)-1H-indazol-1-yl)pyridin-2-yl)methanol]"
5,< 0.1 µM,"CCC[C@H](N)c1cccc(-c2ccc3cnn(-c4cccc(CO)c4)c3c2)n1 [Example 402, (S)-(3-(6-(6-(1-aminobutyl)pyridin-2-yl)-1H-indazol-1-yl)phenyl)methanol]"
